Measurements as given in patent US10202361B2, “Pyridazinones as herbicides” (E I DU PONT DE NEMOURS AND COMPANY, priority 2014, dated 2019).

Key:
Type in all cases: in vivo
[1] = tested on: barnyardgrass (Echinochloa crus-galli); assay: Test A pre-/postemergence greenhouse herbicide test; conditions: 0 to 100 scale (0 no effect, 100 complete control), approx. 10 d
Excerpt: (§1) Seeds of plant species selected from barnyardgrass (Echinochloa crus-galli), crabgrass, Large (large crabgrass, Digitaria sanguinalis), foxtail, giant (giant foxtail, Setaria faberii), morningglory (Ipomoea spp.), pigweed (Amaranthus retroflexus), velvetleaf (Abutilon theophrasti), wheat (Triticum aestivum), and corn (Zea mays) were planted into a blend of loam soil and sand and treated preemergence with a directed soil spray using test chemicals formulated in a non-phytotoxic solvent mixture which included a surfactant. At the same time these species were also treated with postemergence applications of test chemicals formulated in the same manner.
(§2) Plants ranged in height from 2 to 10 cm and were in the one- to two-leaf stage for the postemergence treatment. Treated plants and untreated controls were maintained in a greenhouse for approximately 10 d, after which time all treated plants were compared to untreated controls and visually evaluated for injury. Plant response ratings, summarized in Table A, are based on a 0 to 100 scale where 0 is no effect and 100 is complete control. A dash (-) response means no test result.

[2] = tested on: pigweed (Amaranthus retroflexus); assay: as above; conditions: 0 to 100 scale (0 no effect, 100 complete control), approx. 10 d
Excerpt: as §1, §2

[3] = tested on: morningglory (Ipomoea spp.); assay: as above; conditions: 0 to 100 scale (0 no effect, 100 complete control), approx. 10 d
Excerpt: as §1, §2

[4] = tested on: crabgrass, Large (large crabgrass, Digitaria sanguinalis); assay: as above; conditions: 0 to 100 scale (0 no effect, 100 complete control), approx. 10 d
Excerpt: as §1, §2

[5] = tested on: corn (Zea mays); assay: as above; conditions: 0 to 100 scale (0 no effect, 100 complete control), approx. 10 d
Excerpt: as §1, §2

[6] = tested on: velvetleaf (Abutilon theophrasti); assay: as above; conditions: 0 to 100 scale (0 no effect, 100 complete control), approx. 10 d
Excerpt: as §1, §2

[7] = tested on: wheat (Triticum aestivum); assay: as above; conditions: 0 to 100 scale (0 no effect, 100 complete control), approx. 10 d
Excerpt: as §1, §2

[8] = tested on: foxtail, giant (giant foxtail, Setaria faberii); assay: as above; conditions: 0 to 100 scale (0 no effect, 100 complete control), approx. 10 d
Excerpt: as §1, §2

[9] = tested on: barnyardgrass (Echinochloa crus-galli); assay: Test B flooded paddy test; conditions: Flood, 250 g ai/ha; scale of 0 to 100, 0 is no effect, 100 is complete control; 13 to 15 d
Description: (§3) Plant species in the flooded paddy test selected from rice (Oryza sativa), small-flower sedge, umbrella (small-flower umbrella sedge, Cyperus difformis), ducksalad (Heteranthera limosa), and barnyardgrass (Echinochloa crus-galli) were grown to the 2-leaf stage for testing. At time of treatment, test pots were flooded to 3 cm above the soil surface, treated by application of test compounds directly to the paddy water, and then maintained at that water depth for the duration of the test. Treated plants and controls were maintained in a greenhouse for 13 to 15 d, after which time all species were compared to controls and visually evaluated. Plant response ratings, summarized in Table B, are based on a scale of 0 to 100 where 0 is no effect and 100 is complete control. A dash (-) response means no test result.

[10] = tested on: rice (Oryza sativa); assay: Test B flooded paddy test; conditions: Flood, 250 g ai/ha; scale of 0 to 100, 0 is no effect, 100 is complete control; 13 to 15 d
Description: as §3

[11] = tested on: sedge, umbrella (small-flower umbrella sedge, Cyperus difformis); assay: Test B flooded paddy test; conditions: Flood, 250 g ai/ha; scale of 0 to 100, 0 is no effect, 100 is complete control; 13 to 15 d
Description: as §3

[12] = tested on: ducksalad (Heteranthera limosa); assay: Test B flooded paddy test; conditions: Flood, 250 g ai/ha; scale of 0 to 100, 0 is no effect, 100 is complete control; 13 to 15 d
Description: as §3

SMILES	Plant response rating, Barnyardgrass ([1]; Postemergence, 125 g ai/ha)	Plant response rating, Barnyardgrass ([1]; Postemergence, 500 g ai/ha)	Plant response rating, Pigweed ([2]; Postemergence, 125 g ai/ha)	Plant response rating, Pigweed ([2]; Postemergence, 500 g ai/ha)	Plant response rating, Pigweed ([2]; Preemergence, 125 g ai/ha)	Plant response rating, Pigweed ([2]; Preemergence, 500 g ai/ha)	Plant response rating, Morningglory ([3]; Postemergence, 125 g ai/ha)	Plant response rating, Morningglory ([3]; Postemergence, 500 g ai/ha)	Plant response rating, Morningglory ([3]; Preemergence, 125 g ai/ha)	Plant response rating, Morningglory ([3]; Preemergence, 500 g ai/ha)	Plant response rating, Crabgrass, Large ([4]; Postemergence, 125 g ai/ha)	Plant response rating, Crabgrass, Large ([4]; Postemergence, 500 g ai/ha)	Plant response rating, Crabgrass, Large ([4]; Preemergence, 125 g ai/ha)	Plant response rating, Crabgrass, Large ([4]; Preemergence, 500 g ai/ha)	Plant response rating, Corn ([5]; Postemergence, 125 g ai/ha)	Plant response rating, Corn ([5]; Postemergence, 500 g ai/ha)	Plant response rating, Corn ([5]; Preemergence, 125 g ai/ha)	Plant response rating, Corn ([5]; Preemergence, 500 g ai/ha)	Plant response rating, Velvetleaf ([6]; Postemergence, 125 g ai/ha)	Plant response rating, Velvetleaf ([6]; Postemergence, 500 g ai/ha)	other results
Cc1cc(=O)n(-c2ccc(F)cc2)nc1Oc1cc(C(F)(F)F)ccn1 [Compound 10]	0	0	30	60	0	30	30	30	0	0	10	20	0	10	0	10	0	0	0	10	Plant response rating, Velvetleaf ([6]; Preemergence, 125 g ai/ha): 0; Plant response rating, Velvetleaf ([6]; Preemergence, 500 g ai/ha): 0; Plant response rating, Wheat ([7]; Postemergence, 125 g ai/ha): 0; Plant response rating, Wheat ([7]; Postemergence, 500 g ai/ha): 0; Plant response rating, Wheat ([7]; Preemergence, 125 g ai/ha): 0; Plant response rating, Wheat ([7]; Preemergence, 500 g ai/ha): 0; Plant response rating, Foxtail, Giant ([8]; Postemergence, 125 g ai/ha): 0; Plant response rating, Foxtail, Giant ([8]; Postemergence, 500 g ai/ha): 10; Plant response rating, Foxtail, Giant ([8]; Preemergence, 125 g ai/ha): 0; Plant response rating, Foxtail, Giant ([8]; Preemergence, 500 g ai/ha): 20; Plant response rating, Barnyardgrass [9]: 0; Plant response rating, Rice [10]: 0; Plant response rating, Sedge, Umbrella [11]: 0; Plant response rating, Ducksalad [12]: 0
Cc1cc(Oc2cccc(C(F)(F)F)n2)nn(-c2ccc(F)cc2)c1=O [Compound 11]	0	0	60	70	0	0	20	30	0	0	10	20	0	10	0	0	0	0	0	0	Plant response rating, Velvetleaf ([6]; Preemergence, 125 g ai/ha): 0; Plant response rating, Velvetleaf ([6]; Preemergence, 500 g ai/ha): 0; Plant response rating, Wheat ([7]; Postemergence, 125 g ai/ha): 0; Plant response rating, Wheat ([7]; Postemergence, 500 g ai/ha): 0; Plant response rating, Wheat ([7]; Preemergence, 125 g ai/ha): 0; Plant response rating, Wheat ([7]; Preemergence, 500 g ai/ha): 0; Plant response rating, Foxtail, Giant ([8]; Postemergence, 125 g ai/ha): 10; Plant response rating, Foxtail, Giant ([8]; Postemergence, 500 g ai/ha): 20; Plant response rating, Foxtail, Giant ([8]; Preemergence, 125 g ai/ha): 0; Plant response rating, Foxtail, Giant ([8]; Preemergence, 500 g ai/ha): 0; Plant response rating, Barnyardgrass [9]: 0; Plant response rating, Rice [10]: 0; Plant response rating, Sedge, Umbrella [11]: 0; Plant response rating, Ducksalad [12]: 0
Cc1cc(=O)n(-c2ccc(F)cc2)nc1Oc1cccc(C(F)(F)F)n1 [Compound 12]	40	70	60	90	90	100	50	90	0	50	20	70	100	100	10	50	0	30	40	60	Plant response rating, Velvetleaf ([6]; Preemergence, 125 g ai/ha): 30; Plant response rating, Velvetleaf ([6]; Preemergence, 500 g ai/ha): 70; Plant response rating, Wheat ([7]; Postemergence, 125 g ai/ha): 0; Plant response rating, Wheat ([7]; Postemergence, 500 g ai/ha): 20; Plant response rating, Wheat ([7]; Preemergence, 125 g ai/ha): 0; Plant response rating, Wheat ([7]; Preemergence, 500 g ai/ha): 0; Plant response rating, Foxtail, Giant ([8]; Postemergence, 125 g ai/ha): 20; Plant response rating, Foxtail, Giant ([8]; Postemergence, 500 g ai/ha): 80; Plant response rating, Foxtail, Giant ([8]; Preemergence, 125 g ai/ha): 80; Plant response rating, Foxtail, Giant ([8]; Preemergence, 500 g ai/ha): 100; Plant response rating, Barnyardgrass [9]: 20; Plant response rating, Rice [10]: 20; Plant response rating, Sedge, Umbrella [11]: 0; Plant response rating, Ducksalad [12]: 0
Cc1cc(Oc2ccnc(C(F)(F)F)c2)nn(-c2ccc(F)cc2)c1=O [Compound 13]	10	60	90	100	80	90	50	60	20	80	50	90	100	100	20	50	0	10	60	70	Plant response rating, Barnyardgrass ([1]; Preemergence, 125 g ai/ha): 0; Plant response rating, Barnyardgrass ([1]; Preemergence, 500 g ai/ha): 60; Plant response rating, Velvetleaf ([6]; Preemergence, 125 g ai/ha): 10; Plant response rating, Velvetleaf ([6]; Preemergence, 500 g ai/ha): 50; Plant response rating, Wheat ([7]; Postemergence, 125 g ai/ha): 0; Plant response rating, Wheat ([7]; Postemergence, 500 g ai/ha): 20; Plant response rating, Wheat ([7]; Preemergence, 125 g ai/ha): 0; Plant response rating, Wheat ([7]; Preemergence, 500 g ai/ha): 10; Plant response rating, Foxtail, Giant ([8]; Postemergence, 125 g ai/ha): 50; Plant response rating, Foxtail, Giant ([8]; Postemergence, 500 g ai/ha): 90; Plant response rating, Foxtail, Giant ([8]; Preemergence, 125 g ai/ha): 80; Plant response rating, Foxtail, Giant ([8]; Preemergence, 500 g ai/ha): 100; Plant response rating, Barnyardgrass [9]: 0; Plant response rating, Rice [10]: 0; Plant response rating, Sedge, Umbrella [11]: 65; Plant response rating, Ducksalad [12]: 30
